One data set addresses PI-3 kinase γ (Homo sapiens, UniProt P48736). Briefly: PI3Kγ inhibitory activity, PI3-kinase HTRF assay (inhibition ratio). In kind it is biochemical. The settings on record: 0.5 h; for inhibition at 50 µM: compound at 50 μM. A digest of the protocol:
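PI3Kγ preincubated 10 min with compound and PIP2 substrate (MgCl2, DTT), then ATP added for 30 min at room temperature. PIP3 detected by HTRF (665/620 nm ratio) after 18 h. Inhibition ratio at 50 or 10 μmol/L, normalised to no-compound and no-enzyme controls.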

The next data set in a line: Metabolic stability test.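 Further: 100% equals the compound amount at 0 min reaction.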 In kind it is in vitro ADME. To be noted: human liver microsome 0.5 mg protein/mL, 1 mmol/L NADPH, 37° C. Summed up:
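Pooled human liver microsomes (0.5 mg protein/mL) incubated with compound and 1 mmol/L NADPH at 37° C. in pH 7.4 Tris buffer for 0 or 30 min. Parent quantified by LC/MS/MS after methanol/acetonitrile quench; value is % remaining at 30 min versus 0 min.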

The next data set has as its target T1, CYP1A2 (Homo sapiens, UniProt P05177).
T1 construct: enzyme: pooled human liver microsome 0.2 mg protein/mL; from tissue; host or cells: pooled human liver microsome
T1 sequence (P05177 1-516): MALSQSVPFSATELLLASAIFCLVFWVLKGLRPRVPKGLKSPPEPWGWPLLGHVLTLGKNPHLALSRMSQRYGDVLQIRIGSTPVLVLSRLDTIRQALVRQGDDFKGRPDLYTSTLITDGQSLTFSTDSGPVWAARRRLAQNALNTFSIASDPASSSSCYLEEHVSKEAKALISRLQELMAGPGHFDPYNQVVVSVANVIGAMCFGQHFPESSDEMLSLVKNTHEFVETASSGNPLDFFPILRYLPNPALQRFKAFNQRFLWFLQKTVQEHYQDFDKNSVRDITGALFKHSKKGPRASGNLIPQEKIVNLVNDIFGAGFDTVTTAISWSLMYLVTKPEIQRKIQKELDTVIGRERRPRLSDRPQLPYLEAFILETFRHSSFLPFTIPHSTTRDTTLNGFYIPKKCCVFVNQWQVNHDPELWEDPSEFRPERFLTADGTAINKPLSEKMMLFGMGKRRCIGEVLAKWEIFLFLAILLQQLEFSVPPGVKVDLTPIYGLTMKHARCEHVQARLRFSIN
Briefly: CYP inhibition test, pooled human liver microsome, CYP1A2. In kind it is in vitro ADME. To be noted: O-de-ethylation of 7-ethoxyresorufin. A digest of the protocol:
(§1)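 Pooled human liver microsomes (0.2 mg protein/mL) in 50 mmol/L Hepes with NADPH, 15 min at 37° C; test drug at 1, 5, 10, 20 μmol/L. Substrates: 0.5 μmol/L ethoxyresorufin (1A2, resorufin by fluorescence), 100 μmol/L tolbutamide (2C9), 5 μmol/L dextromethorphan (2D6), 1 μmol/L terfenadine (3A4), metabolites by LC/MS/MS. IC50 from remaining activity vs DMSO control, logistic model.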
A general note: Microsomes from liver hold many membrane-bound enzymes, among them those of drug oxidation.

The target of a further data set is T2, CYP2C9 (Homo sapiens, UniProt P11712).
T2 construct: enzyme: pooled human liver microsome 0.2 mg protein/mL; from tissue; host or cells: pooled human liver microsome
Briefly: CYP inhibition test, pooled human liver microsome, CYP2C9. In kind it is in vitro ADME. The settings on record: methyl-hydroxylation of tolbutamide. A digest of the protocol: as §1

In another data set the target is T3, CYP3A4 (Homo sapiens, UniProt P08684).
T3 construct: enzyme: pooled human liver microsome 0.2 mg protein/mL; from tissue; host or cells: pooled human liver microsome
Briefly: CYP inhibition test, pooled human liver microsome, CYP3A4. In kind it is in vitro ADME. To be noted: hydroxylation of terfenadine. A digest of the protocol:
as §1

Here are results for 8 compounds from US20110230472A1, “RING-FUSED AZOLE DERIVATIVE HAVING PI3K-INHIBITING ACTIVITY” (Shionogi & Co., Ltd., priority 2008, published 2011).

Where only a bound is given, the exact number is not on record here.

Usually inhibition stands for the relative decrease from the control value, in per cent. Usually IC50 stands for the point on the concentration scale where inhibition reaches its midpoint. A lower IC50 goes with greater potency.

T2 sequence (P11712 whole entry): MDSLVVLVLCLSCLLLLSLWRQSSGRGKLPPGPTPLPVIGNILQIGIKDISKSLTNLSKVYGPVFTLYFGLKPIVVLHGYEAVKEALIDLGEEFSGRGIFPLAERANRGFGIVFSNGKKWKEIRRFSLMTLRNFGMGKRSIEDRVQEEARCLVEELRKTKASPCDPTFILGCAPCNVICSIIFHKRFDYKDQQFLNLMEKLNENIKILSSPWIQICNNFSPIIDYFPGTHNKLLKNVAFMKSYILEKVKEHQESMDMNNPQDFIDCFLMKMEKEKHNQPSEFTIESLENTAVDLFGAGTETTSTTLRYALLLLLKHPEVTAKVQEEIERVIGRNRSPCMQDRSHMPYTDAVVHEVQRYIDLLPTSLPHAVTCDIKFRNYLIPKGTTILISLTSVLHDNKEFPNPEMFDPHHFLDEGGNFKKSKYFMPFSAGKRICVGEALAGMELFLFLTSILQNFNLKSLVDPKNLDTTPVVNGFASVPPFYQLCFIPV
Sequence of PI-3 kinase γ (P48736 whole entry): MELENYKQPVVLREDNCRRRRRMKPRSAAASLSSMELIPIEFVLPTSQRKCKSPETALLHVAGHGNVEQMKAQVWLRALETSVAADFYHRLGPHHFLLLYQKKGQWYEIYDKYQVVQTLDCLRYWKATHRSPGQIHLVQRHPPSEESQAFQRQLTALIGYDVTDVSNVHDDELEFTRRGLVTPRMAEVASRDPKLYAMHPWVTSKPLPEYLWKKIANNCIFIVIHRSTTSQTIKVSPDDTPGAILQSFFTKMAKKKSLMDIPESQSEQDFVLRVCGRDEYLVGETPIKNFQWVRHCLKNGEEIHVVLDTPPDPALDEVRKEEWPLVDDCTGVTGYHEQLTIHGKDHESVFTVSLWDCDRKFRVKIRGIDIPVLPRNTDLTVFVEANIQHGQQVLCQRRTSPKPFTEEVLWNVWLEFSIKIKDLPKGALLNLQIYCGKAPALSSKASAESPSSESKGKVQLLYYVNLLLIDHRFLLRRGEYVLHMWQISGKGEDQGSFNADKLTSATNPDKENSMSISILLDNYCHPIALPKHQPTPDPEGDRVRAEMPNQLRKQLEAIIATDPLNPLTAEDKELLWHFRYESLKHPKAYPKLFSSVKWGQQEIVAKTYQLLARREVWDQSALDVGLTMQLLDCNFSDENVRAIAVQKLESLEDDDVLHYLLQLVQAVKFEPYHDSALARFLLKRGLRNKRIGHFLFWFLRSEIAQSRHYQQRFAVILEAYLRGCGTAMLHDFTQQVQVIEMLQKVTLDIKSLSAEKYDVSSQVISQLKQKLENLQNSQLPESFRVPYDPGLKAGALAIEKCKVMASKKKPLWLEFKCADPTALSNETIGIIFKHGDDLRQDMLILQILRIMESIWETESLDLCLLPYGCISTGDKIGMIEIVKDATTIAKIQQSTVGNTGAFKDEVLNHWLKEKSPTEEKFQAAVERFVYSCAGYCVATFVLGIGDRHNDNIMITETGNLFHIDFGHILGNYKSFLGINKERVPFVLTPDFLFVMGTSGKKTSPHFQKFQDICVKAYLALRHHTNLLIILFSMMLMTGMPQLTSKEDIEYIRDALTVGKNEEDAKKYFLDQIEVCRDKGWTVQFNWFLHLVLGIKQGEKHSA
T3 sequence (P08684 whole entry): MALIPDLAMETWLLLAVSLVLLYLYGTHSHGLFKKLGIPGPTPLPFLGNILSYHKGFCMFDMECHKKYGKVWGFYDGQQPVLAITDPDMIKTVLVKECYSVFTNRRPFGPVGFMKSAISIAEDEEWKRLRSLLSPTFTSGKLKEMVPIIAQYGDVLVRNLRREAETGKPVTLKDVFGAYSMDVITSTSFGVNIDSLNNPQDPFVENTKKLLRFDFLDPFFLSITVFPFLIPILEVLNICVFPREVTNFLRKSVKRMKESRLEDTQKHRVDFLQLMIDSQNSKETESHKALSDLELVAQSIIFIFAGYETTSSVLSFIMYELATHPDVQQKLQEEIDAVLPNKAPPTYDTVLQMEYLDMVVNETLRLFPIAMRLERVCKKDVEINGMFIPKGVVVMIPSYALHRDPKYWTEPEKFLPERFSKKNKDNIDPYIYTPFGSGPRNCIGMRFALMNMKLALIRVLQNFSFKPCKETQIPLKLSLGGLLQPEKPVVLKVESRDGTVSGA

As to `CNC(=O)Nc1cc2n(n1)CCN2c1cc(C(=O)N2CCOCC2)cc(-c2ccc(N)nc2)c1` [Compound I-200], at PI-3 kinase γ (PI3Kγ), the inhibition at 50 µM is at least 95%. Further, the “percentage of the test compound remained after reacting for 30 minutes” value (shortened to “percentage of the test compound remained”) in “Metabolic stability test” is reported as 98.6%. Besides, the IC50 against CYP1A2, against CYP2C9 and at CYP3A4 was above 20 µM each time.

As to `COc1cc(N2CCc3nc(NC(=O)NCc4cc(=O)[nH]o4)sc3C2)nc(OC)n1` [Compound I-279], the inhibition at 10 µM on PI-3 kinase γ (PI3Kγ, compound at 10 μM) was at least 95%. Moreover, the “percentage of the test compound remained” value in the data set “Metabolic stability test” came to 99.7%. Moreover, the IC50 on CYP1A2, at CYP2C9 and against CYP3A4 was above 20 µM in each case.

In the case of `CNC(=O)Nc1cc2n(n1)CCN2c1ccc(S(C)(=O)=O)cc1` [Compound I-89], at PI-3 kinase γ (PI3Kγ), the inhibition at 50 µM is at least 95%. Moreover, in the data set “Metabolic stability test”, the “percentage of the test compound remained” value worked out at 93.6%. Also, the IC50 against CYP1A2, against CYP2C9 and against CYP3A4 was above 20 µM each time.

In the case of `CN1CCc2cc(N3CCn4nc(NC(=O)c5ccco5)cc43)ccc2C1=O` [Compound I-358], at PI-3 kinase γ (compound at 10 μmol/L), the inhibition at 10 µM was at least 95%. In the data set “Metabolic stability test”, the “percentage of the test compound remained” value was determined as 88.4%. Further, the IC50 on CYP1A2, against CYP2C9 and on CYP3A4 was above 20 µM in each case.

Regarding `CNC(=O)Nc1nc2c(s1)CN(c1cc(Cl)nc(N)n1)CC2` [Compound I-118], the inhibition at 50 µM on PI-3 kinase γ (PI3Kγ) was at least 95%. Moreover, the “percentage of the test compound remained” value in “Metabolic stability test” is listed as 98.3%. Besides, the IC50 at CYP1A2, on CYP2C9 and against CYP3A4 was above 20 µM in each case.

As for `CNC(=O)Nc1nc2c(s1)CN(c1ccnc(OC)n1)CC2` [Compound I-142], the inhibition at 50 µM at PI-3 kinase γ (PI3Kγ) was at least 95%. In addition, the “percentage of the test compound remained” value in the data set “Metabolic stability test” is given as 97.5%. Also, the IC50 against CYP1A2, against CYP2C9 and against CYP3A4 was above 20 µM in each case.

`COc1cc(N2CCc3nc(NC(=O)NCC(=O)O)sc3C2)nc(OC)n1` [Compound I-208]: on PI-3 kinase γ (PI3Kγ), the inhibition at 50 µM came to 93%. Besides, the “percentage of the test compound remained” value in the data set “Metabolic stability test” is 87.2%. The IC50 at CYP1A2, at CYP2C9 and on CYP3A4 was above 20 µM throughout.

Take `CN1CCc2cc(N3CCn4nc(NC(=O)c5cccnc5)cc43)ccc2C1=O` [Compound I-347]: at PI-3 kinase γ (compound at 10 μmol/L), the inhibition at 10 µM turned out to be 91%. The “percentage of the test compound remained” value in the data set “Metabolic stability test” is 92%. The IC50 against CYP1A2, against CYP2C9 and at CYP3A4 was above 20 µM each time.
